Active and inactive are the calls of the source. The rule behind the calls is not given here.

The nature of data set [1]: Tmax in male Sprague-Dawley rat at 5 mg/kg, iv measured after 24 hrs by LC-MS/MS analysis. The data set is classed as ADME, organism-based. The note with it: in vivo.
Data set [2] has as its target Cyclin-dependent kinase 16 (Homo sapiens) (UniProt Q00536). Nature of the data set: Induction of CDK16 degradation in human H1975-TM cells at 50 nM incubated for 24 hrs. The data set is classed as cell-based.
The nature of data set [3]: Half-life in male Sprague-Dawley rat at 50 mg/kg, po measured after 24 hrs by LC-MS/MS analysis. It counts as ADME, organism-based. The note with it: in vivo.
Data set [4] addresses Protein cereblon/Epidermal growth factor receptor (Homo sapiens, UniProt P00533+Q96SW2). Nature of the data set: (§1) PROTAC activity at CRBN/EGFR exon 19 deletion mutant in human PC-9 cells assessed as induction of EGFR degradation incubated for 24 hrs by Western blot analysis. It counts as cell-based. On the technique in general: Immunoblotting shows a protein as a band on a membrane.

The test system of data set [5] is Protein cereblon/Epidermal growth factor receptor (Homo sapiens), P00533+Q96SW2 [UNDEFINED MUTATION]. The data set is described as §1. It counts as cell-based.
Chain of Protein cereblon/Epidermal growth factor receptor (Homo sapiens), P00533+Q96SW2 [UNDEFINED MUTATION] (P00533 whole entry, looked up, stated change not applied): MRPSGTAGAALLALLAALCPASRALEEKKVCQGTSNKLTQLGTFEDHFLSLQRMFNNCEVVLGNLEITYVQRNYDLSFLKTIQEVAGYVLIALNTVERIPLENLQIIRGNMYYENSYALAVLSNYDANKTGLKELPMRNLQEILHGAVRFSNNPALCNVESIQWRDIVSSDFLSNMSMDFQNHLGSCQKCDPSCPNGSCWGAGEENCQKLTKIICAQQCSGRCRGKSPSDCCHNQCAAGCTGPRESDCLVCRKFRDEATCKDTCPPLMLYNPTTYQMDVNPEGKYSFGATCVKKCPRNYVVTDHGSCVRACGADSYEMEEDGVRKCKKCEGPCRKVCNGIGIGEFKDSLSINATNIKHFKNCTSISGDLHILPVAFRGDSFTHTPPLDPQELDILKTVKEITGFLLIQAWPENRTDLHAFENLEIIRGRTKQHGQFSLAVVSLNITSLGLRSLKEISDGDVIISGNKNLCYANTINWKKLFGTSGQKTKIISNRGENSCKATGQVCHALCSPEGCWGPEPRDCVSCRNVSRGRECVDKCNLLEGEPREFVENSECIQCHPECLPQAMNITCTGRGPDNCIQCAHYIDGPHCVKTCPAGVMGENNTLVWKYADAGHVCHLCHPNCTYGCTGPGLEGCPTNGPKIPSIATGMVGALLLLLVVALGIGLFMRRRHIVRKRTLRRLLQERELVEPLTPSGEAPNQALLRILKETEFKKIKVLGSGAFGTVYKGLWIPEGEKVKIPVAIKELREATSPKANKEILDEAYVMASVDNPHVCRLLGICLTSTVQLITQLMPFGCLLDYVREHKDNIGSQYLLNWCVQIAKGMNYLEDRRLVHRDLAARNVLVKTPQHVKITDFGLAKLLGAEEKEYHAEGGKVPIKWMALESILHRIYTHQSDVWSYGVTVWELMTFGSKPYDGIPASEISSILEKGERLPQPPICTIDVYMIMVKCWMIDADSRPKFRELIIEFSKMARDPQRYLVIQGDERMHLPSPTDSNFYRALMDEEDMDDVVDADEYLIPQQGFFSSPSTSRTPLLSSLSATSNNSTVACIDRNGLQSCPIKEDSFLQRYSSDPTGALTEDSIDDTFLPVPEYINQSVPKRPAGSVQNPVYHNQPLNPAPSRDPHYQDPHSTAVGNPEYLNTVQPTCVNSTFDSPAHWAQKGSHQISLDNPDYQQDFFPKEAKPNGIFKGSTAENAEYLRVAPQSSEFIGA
Chain of Protein cereblon/Epidermal growth factor receptor (Homo sapiens), P00533+Q96SW2 [UNDEFINED MUTATION] (Q96SW2 whole entry, looked up, stated change not applied): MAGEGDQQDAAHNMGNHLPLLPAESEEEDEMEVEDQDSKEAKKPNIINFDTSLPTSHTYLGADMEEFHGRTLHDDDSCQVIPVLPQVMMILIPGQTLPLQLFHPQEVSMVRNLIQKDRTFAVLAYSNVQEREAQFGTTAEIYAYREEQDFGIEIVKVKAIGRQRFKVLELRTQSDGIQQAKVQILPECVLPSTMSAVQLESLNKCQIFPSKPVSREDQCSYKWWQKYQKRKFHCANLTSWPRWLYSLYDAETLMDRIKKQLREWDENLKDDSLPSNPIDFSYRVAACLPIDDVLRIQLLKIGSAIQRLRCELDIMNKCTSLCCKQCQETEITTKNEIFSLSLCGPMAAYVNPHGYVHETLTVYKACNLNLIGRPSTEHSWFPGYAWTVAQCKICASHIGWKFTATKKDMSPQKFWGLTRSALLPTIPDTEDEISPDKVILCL
Data set [6] concerns Protein cereblon/Epidermal growth factor receptor (Homo sapiens), P00533+Q96SW2 [L858R,T790M,C797S]. As to the kind of experiment: PROTAC activity at CRBN/EGFR L858R/T790M/C797S mutant in human H1975-TM cells assessed as induction of EGFR degradation by measuring remaining activity at 100 nM incubated for 3 hrs by Western blot analysis (reference value: 100%). It counts as cell-based.

Data set [7] has the same test system. Nature of the data set: PROTAC activity at CRBN/EGFR L858R/T790M/C797S mutant in human H1975-TM cells assessed as induction of EGFR degradation by measuring remaining activity at 100 nM preincubated for 24 hrs followed by compound washout and measured after 6 hrs by Western blot analysis (reference value: 100%). The data set is classed as cell-based.
Data set [8] addresses Epidermal growth factor receptor (Homo sapiens) (UniProt P00533). As to the kind of experiment: Inhibition of EGFR signaling in human H1975-TM cells harboring EGFR L858R/T790M/C797S mutant assessed as reduction in AKT activation by Western blot analysis. The data set is classed as cell-based. The following applies: dose 1.2-300 nM.
Data set [9] deals with Protein cereblon/Epidermal growth factor receptor (Homo sapiens), P00533+Q96SW2 [L858R,T790M,C797S]. Nature of the data set: PROTAC activity at CRBN/EGFR L858R/T790M/C797S mutant in human H1975-TM cells assessed as induction of EGFR degradation by measuring remaining activity at 100 nM incubated for 6 hrs by Western blot analysis (reference value: 100%). The data set is classed as cell-based.

The target in data set [10] is Sodium-coupled neutral amino acid symporter 2 (Homo sapiens) (UniProt Q96QD8). Nature of the data set: Induction of SLC38A2 degradation in human H1975-TM cells at 50 nM incubated for 24 hrs. It counts as cell-based.
Chain of Sodium-coupled neutral amino acid symporter 2 (Homo sapiens) (Q96QD8 whole entry): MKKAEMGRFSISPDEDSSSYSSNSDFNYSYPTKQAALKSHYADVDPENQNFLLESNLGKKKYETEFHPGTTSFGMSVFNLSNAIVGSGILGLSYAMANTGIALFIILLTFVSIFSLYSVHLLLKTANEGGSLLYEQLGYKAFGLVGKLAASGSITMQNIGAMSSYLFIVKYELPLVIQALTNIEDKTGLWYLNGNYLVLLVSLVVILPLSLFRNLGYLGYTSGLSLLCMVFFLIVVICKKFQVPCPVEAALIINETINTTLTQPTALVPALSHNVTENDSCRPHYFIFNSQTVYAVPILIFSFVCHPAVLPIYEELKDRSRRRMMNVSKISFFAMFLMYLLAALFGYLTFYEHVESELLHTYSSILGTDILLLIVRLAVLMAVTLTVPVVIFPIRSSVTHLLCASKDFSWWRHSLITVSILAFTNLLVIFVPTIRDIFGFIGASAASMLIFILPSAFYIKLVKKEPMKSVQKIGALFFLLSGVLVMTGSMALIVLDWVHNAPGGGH
The subject of the next data set is Mus musculus. As to the kind of experiment: In vivo PROTAC activity at CRBN/EGFR L858R/T790M/C797S mutant in BALB/c nude mouse xenografted with human […] cells assessed as decrease in EGFR protein level in tumor at 25 to 100 mg/kg, po administered once daily for 31 days by Western blot analysis. The data set is classed as functional, organism-based. The following applies: dose 25-100 mg/kg, time 31.0 day.

Data set [11] in a line: Oral bioavailability in Sprague-Dawley rat at 50 mg/kg measured after 24 hrs by LC-MS/MS analysis. The data set is classed as ADME, organism-based. The note with it: in vivo.
A further data set has as its system NCI-H1975. As to the kind of experiment: Antiproliferative activity against human NCI-H1975 cells harboring EGFR L858R/T790M mutant assessed as inhibition of cell proliferation incubated for 72 hrs by CCK8 assay. The data set is classed as functional, cell-based. The following applies: NCI-H1975, 72 h. In general terms: Tetrazolium dyes change colour on reduction, which living cells bring about.

Data set [12] has as its system Protein cereblon/Epidermal growth factor receptor (Homo sapiens), P00533+Q96SW2 [L858R,T790M,C797S]. As to the kind of experiment: PROTAC activity at CRBN/EGFR L858R/T790M/C797S mutant in human H1975-TM cells assessed as induction of EGFR degradation by measuring remaining activity at 100 nM preincubated for 24 hrs followed by compound washout and measured after 3 hrs by Western blot analysis (reference value: 100%). It counts as cell-based.

Data set [13] in a line: Antiproliferative activity against human HI975-TM cells harboring EGFR L858R/T790M/C797S mutant assessed as inhibition of cell growth incubated for 72 hrs by CCK-8 assay. The data set is classed as functional, cell-based. The note with it: H1975-TM.
Data set [14] is described as follows: Toxicity in BALB/c nude mouse xenografted with human H1975-TM cells assessed as kidney lesions at 25 to 100 mg/kg, po administered once daily for 31 days by Hematoxylin and eosin staining based analysis. The data set is classed as organism-based. The note with it: in vivo, 744 h, dose 25-100 mg/kg, time 31 day. For orientation: A xenograft is tissue or cells of one species grown in another, often human tumour cells in immunodeficient mice.

The subject of data set [15] is Protein cereblon/Epidermal growth factor receptor (Homo sapiens), P00533+Q96SW2 [L858R,T790M,C797S]. As to the kind of experiment: PROTAC activity at CRBN/EGFR L858R/T790M/C797S mutant in human H1975-TM cells assessed as induction of EGFR degradation by measuring remaining activity at 11 nM incubated for 24 hrs by Western blot analysis (reference value: 100%). It counts as cell-based.

In data set [16] the target is Aurora kinase B (Homo sapiens) (UniProt Q96GD4). Nature of the data set: Induction of AURKB degradation in human H1975-TM cells at 50 nM incubated for 24 hrs. It counts as cell-based.
Chain of Aurora kinase B (Homo sapiens) (Q96GD4 whole entry): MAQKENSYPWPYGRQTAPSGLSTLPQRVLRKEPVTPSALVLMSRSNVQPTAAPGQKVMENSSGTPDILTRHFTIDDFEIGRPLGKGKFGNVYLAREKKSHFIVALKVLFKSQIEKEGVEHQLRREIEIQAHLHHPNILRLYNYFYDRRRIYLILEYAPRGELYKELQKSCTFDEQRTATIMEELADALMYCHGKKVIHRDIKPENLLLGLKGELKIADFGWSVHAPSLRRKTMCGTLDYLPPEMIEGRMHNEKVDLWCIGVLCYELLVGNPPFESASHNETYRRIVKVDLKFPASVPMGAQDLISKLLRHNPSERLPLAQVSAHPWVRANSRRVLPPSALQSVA

Chain of Epidermal growth factor receptor (Homo sapiens) (P00533 whole entry): as the sequence (P00533 whole entry, looked up, stated change not applied) above
Chain of Protein cereblon/Epidermal growth factor receptor (P00533 whole entry, looked up, stated change not applied): as above
Chain of Protein cereblon/Epidermal growth factor receptor (Q96SW2 whole entry, looked up, stated change not applied): as the sequence (Q96SW2 whole entry, looked up, stated change not applied) above

One may read the Tmax as the time from dosing to the highest level. What is called half-life is how long it takes for the measured level to halve. Read a high half-life as slow decline. What is called DC50 is the midpoint of the concentration-degradation curve. Broadly, the bioavailability is the share of a dose that reaches the circulation, judged against a reference dose that is usually intravenous. Broadly, the IC50 is the concentration that inhibits the measured activity by half. For `CCS(=O)(=O)n1cc(-c2nc(Nc3ccc(N4CCN(CCCCCCC(=O)Nc5cccc6c5CN(C5CCC(=O)NC5=O)C6=O)CC4)cc3)ncc2C(F)(F)F)c2ccccc21` (stereo not drawn), the Tmax in data set [1] is 4.8 min. Further, the result (in data set [2]; in [10]; with Mus musculus; in data set [16]) was Active. In data set [3], this molecule showed a half-life of 10.9 h. Further, the half-maximal degradation concentration (DC50) in data set [4] came out at 0.0754 µM. The Activity result in data set [5] is “Dose-Dependent Effect”; in [6], 75.7%; in data set [7], 36.1%; in data set [9], 65.9%; in [12], 8.5%; in data set [14], “Non-Toxic”. The Activity in data set [15] came to 33.5%. Further, in data set [8], the inhibition entry was “Dose-Dependent Effect”. In addition, the bioavailability in data set [11] was found to be 4.2%. In addition, the IC50 in the data set on NCI-H1975 came to 0.0462 µM; in data set [13], 0.0103 µM.

Values taken from ChEMBL document CHEMBL5543167, “Design, Synthesis, and Biological Evaluation of Novel EGFR PROTACs Targeting C797S Mutation” (J Med Chem, 2024).
